In US5380759A, “Methyl N-[6-(3,4,5-trimethoxybenzloxy)imidazo[1,2-b]pyridazin-2-zyl]carbamate used to treat leukemia” (priority 1987, dated 1995):

Tests used:
tubulin = experiment: Turbidimetric assay of tubulin polymerisation; type: biochemical, horse; conditions: 37° C., increase in A350nm 10 min after lag phase; read-out: Total tubulin polymerisation IC50
Method: A) Tubulin Polymerisation Assay
1. Preparation of tubulin
All manipulations are performed at 4° C. unless otherwise specified. The horse brain is washed in ice-cold BBG buffer and superficial meninges and blood vessels removed. After weighing, cerebral cortices are chopped, homogenised in 75 ml BBG buffer/100 g brain, centrifuged at 6500 g for 15 min and after removal of […], re-centrifuged at 100,000 g for 75 min. The volume of the supernatant (Vml) is measured and V/10 ml 10 mM GTP (Li salt) in H2 O added. The mixture is incubated in sealed centrifuge tubes (30 min, 34° C.) in a shaking water bath to polymerise the tubulin. After polymerisation the tubes are balanced and centrifuged at 100,000 g, (1 h at 27° C.) in a pre-warmed rotor. The high-speed pellet is resuspended in V/4 ml BB buffer and the preparation stirred on ice for 30 min and centrifuged at 100,000 g (1 h at 4° C.) to remove the cold-stable microtubules. An equal volume of BB2G buffer is added to the supernatant which is frozen rapidly in 5 ml samples in plastic weighing dishes floated on a solid CO2 /ethanol slurry, and stored overnight at -80° C. After ca. 18 hours the frozen samples of tubulin are thawed, 10 mM GTP in H2 O added to give a final concentration of 1 mM, and the new volume (Wml), is measured. The polymerisation/depolymerisation cycle is repeated exactly as above but substituting W for V to give twice-cycled tubulin.
2. Turbidimetric Assay of Tubulin Polymerisation
Apparatus: recording spectrophotometer with a 6-position, thermostatted cuvette holder; full scale deflection=0.2 absorbance units.
In a 1 ml spectrophotometer cuvette are mixed 100 μl 10 mM GTP (Li salt) made up in BB buffer, 10 μl H2 O or DMSO-depending on selected drug solvent, BB buffer and tubulin preparation such that the final increase in A350nm is 0.15 units after 16 mins (approx. 100 μl of tubulin prep. or 2.5 mg protein) in a final volume of 1 ml at 37° C. All reagents are stored on ice.
Polymerisation is initiated by raising the temperature to 37° C. and the increase in A350nm of triplicate samples against a reference cuvette is recorded. The reference sample includes a similar incubation mixture either without tubulin or with the addition of 1 mM Ca^2+. The increase over initial A350nm 10 min after the completion of lag phase (control polymerisation is 80% complete within this time) is calculated and expressed as a percentage of the control value, for a range of drug concentrations. The drug concentration required to give a 50% change (IC50) in the control value is determined.

P388/O tumour = experiment: Lymphocytic leukaemia P388/O test; type: in vivo, mouse; conditions: 10 mg/kg i.p. days 1, 5 and 9
Method: C. Lymphocytic Leukemia P388/O Test
(§1) CD2-F1 mice, of the same sex, weighing within a 3 gram range surrounding 20 g, are used for this test. Control and test animals are injected intraperitoneally with a suspension of 10^6 viable P388/O tumour cells on day 0. In each test several dose levels which bracket the LD20 for the compound are evaluated; each dose level group contains 6 animals. The test compounds are prepared either in physiologic saline containing 0.05% Tween 80 or distilled water containing 5% dextrose and are administered intraperitoneally on days 1,5 and 9 relative to tumour implant. Doses are on a mg/kg basis according to individual animals' body weights. The day of death for each animal is recorded and the median day of death identified for each group. The difference between the median survival time for treated and control groups is expressed as a percentage increase in life span (% ILS).

LD20 (Mouse) = type: in vivo; conditions: i.p. days 1, 5 and 9, CD2-F1 mice, observed up to 14 days
[1] = test system: DLD-1 human colon carcinoma cells; experiment: In vitro activity against human tumour cell line DLD-1 (proliferation); type: cell-based; conditions: DLD-1, 96 h, methylene blue, read-out: IC50
Method: (§2) Cells from the human tumour cell lines DLD-1, HCT-116, WiDr and A549 are exposed to serially diluted concentrations of test compounds over a 96 hour period in culture. The ability of such cells to proliferate over the test period is determined.
(§3) Cells in log growth are plated into 96 well multiwell tissue culture dishes in 100 μl/well of RPMI 1640 culture medium supplemented with 10% foetal calf serum, antibiotics and test compound. All compounds are formulated initially at appropriate concentrations in DMSO, the final concentrations in this solvent being twenty times that required in the plate. A final 1 in 10 dilution in complete medium is then made before adding 100 μl to each well of the plate. All compounds are evaluated at concentrations ranging serially in four fold decrements from a top concentration some four fold greater than that already known to inhibit the proliferation of cells from the mouse lymphoid neoplasm, P388D1 by about 80 to 90 percent in a primary proliferative assay.
(§4) After 96 hours the proliferation of cells exposed to test compound is compared with control untreated cells by one of two methods:
a) Culture supernatants are aspirated and cells fixed and stained by adding a solution of methylene blue (5 g per liter of 50% ethanol: water, 100 μl/well). After 30 minutes at room temperature unbound stain is washed off by immersing plates in water. Stained cells are solubilised overnight using 1% Sarkosyl (Sigma) in phosphate-buffered saline (100 μl/well). Absorbances are read by an ELISA plate spectrophotometer at a wavelength of 620 nm. The IC50 is defined as that concentration of drug which decreases absorbance to 50% of that in control (drug-free) cultures. This method is used for the DLD-1 cell line.

[2] = test system: HCT-116 human colon carcinoma cells; experiment: In vitro activity against human tumour cell line HCT-116 (proliferation); type: cell-based; conditions: HCT-116, 96 h, MTT, read-out: IC50
Method: as §2, §3, §4
b) 20 μl of MTT (5 mg/ml in PBS) is added to each well. After an incubation period of 4 hours the medium from each well is aspirated and replaced with 200 μl DMSO to dissolve the formazan crystals formed. Absorbances are read by an ELISA plate spectrophotometer at a wavelength of 540 nm. The IC50 is defined as that concentration of drug which decreases absorbance to 50% of that in control (drug-free) cultures. This method is used for the WiDr, HCT-116 and A549 cell lines.

B16 = experiment: In vivo activity against murine tumour B16; set-up: species or system mouse
Method: as §1
G. In vivo activity of the compound of Example 1 against murine tumours
Using a similar procedure to the Lymphocytic Leukaemia P388/O test the compound of Example 1 was evaluated against the murine tumours B16, L1210 and M5076. A suspension of 10^6 tumour cells is implanted intraperitoneally into control and test animals on day zero. B16 tumour cells are administered intraperitoneally as a 1:10 Brei of cells on day zero. […] The day of death for each animal is recorded and the %ILS (percentage increase in life-span) calculated.

SMILES: COC(=O)Nc1cn2nc(OCc3cc(OC)c(OC)c(OC)c3)ccc2n1 [Example 1, Methyl N-[6-(3,4,5-trimethoxybenzyloxy)imidazo[1,2-b]pyridazin-2-yl]carbamate]
- IC50 (tubulin): 420 nM
- 30 Day survivors (P388/O tumour): 6/6
- 60 Day Survivors (P388/O tumour): 2/6
- ILS at 10 mg/kg (P388/O tumour; Mus musculus, P388, ip): 300%
- LD50 (LD20 (Mouse)): 20 to 30 mg/kg
- IC50 [1]: 11.6 nM
- IC50 [2]: 9.2 nM
- Mean % ILS (±SEM) (B16; 5 mg/kg i.p. days 1, 5 and 9, 3 expts): 69 (±4) %
- activity in vivo against B16 melanoma (B16; in words): good activity
